Blank lines part the entries; values can stand above or below the compound they belong to.
What was measured:
[1] = tested on: MEK–ERK signaling (p-MEK1, p-ERK1/2); assay: Bio-Plex bead-based phosphoprotein assay, MEK–ERK pathway; assay type: cell-based, human
[2] = tested on: primary human hepatocytes; assay: Lactate dehydrogenase; assay type: cell-based
[3] = tested on: Akt, p70 S6K, MEK–ERK, and p38–HSP27 signaling pathways; conditions: donor #2; 100*Cmax

- inhibition of MEK signaling in human hepatocytes ([1]; donor #3, selection from panel of candidate inhibitors): potently inhibit signaling
Structure (SMILES): N#CC(=C(/N)Sc1ccccc1N)/C(C#N)=C(/N)Sc1ccccc1N [U0126]
- toxicity induced by inhibitor itself in human hepatocytes ([2]; donor #3): minimal toxicity

Structure (SMILES): CN(C)CCCN1c2ccccc2CCc2ccc(Cl)cc21 [clomipramine]
- activation of the four 'network gauge' signaling pathways compared to control treatments [3]: without significant activation

Structure (SMILES): N[C@@H]1[C@H]2CN(c3nc4c(cc3F)c(=O)c(C(=O)O)cn4-c3ccc(F)cc3F)C[C@@H]12 [trovafloxacin]
- synergistic induction of cell death by drug/cytokine co-treatment ([2]; drug ± three-cytokine/LPS mix, donors #1 and #2): synergistically induced

Structure (SMILES): CC[C@H]1OC(=O)[C@H](C)[C@@H](O[C@H]2C[C@@](C)(OC)[C@@H](O)[C@H](C)O2)[C@H](C)[C@@H](O[C@@H]2O[C@H](C)C[C@H](N(C)C)[C@H]2O)[C@](C)(OC)C[C@@H](C)C(=O)[C@H](C)[C@@H](O)[C@]1(C)O [clarithromycin]
- MEK–ERK signaling under drug treatment ([1]; donor #1 and donor #2, 100*Cmax): sustained activation of MEK–ERK signaling

From article PMC2943488 (Molecular bioSystems, 2010)
